From patent publication US20250032625A1, “HETEROBIFUNCTIONAL MOLECULES AS TEAD INHIBITORS” (Merck Patent GmbH, priority 2021, published 2025)
Read-outs that look alike come from different tables or passages of the source.

Key:
TEAD1 in NCI-H226 cells = TEAD1 in NCI-H226 cells (Homo sapiens (Human), UniProt P28347); experiment: TEAD degradation in NCI-H226 cell line (immunofluorescence); format: cell-based
Method: (§1) Degradation of TEAD isoform TEAD1 by exemplary compounds which has been determined at different time points in two different cell lines, SK-HEP1 and NCI-H226: For the assay, SK-HEP1 (ATCC HTB-52) and NCI-H226 (ATCC CRL-5826) cells were treated in duplicates with the test compounds in a 10-point dose, 1:3 dilution steps, with the top concentration starting at 30 uM (final concentration in assay). After either 16 or 24 hour incubation at 37° C., 95% rH, and 5% CO2, the cells were fixed with 4% PFA and TEAD1 levels were probed using immunofluorescence. The primary antibody used was Anti-TEF1 (BD, 610293) and the secondary antibody used was Alexa Fluor® 488 Goat Anti-Mouse IgG (H+L) (Molecular Probes, A-11001). Finally, the cell nuclei were co-stained by Hoechst 33258 (Invitrogen, H-3569) and imaged using a high content imager. The amount of TEAD degradation was determined by quantifying the fluorescence intensity levels of Anti-TEF1 in each individual cell per well. DC50 was calculated using curve fitting software Genedata Screener. Cell media: The SK-HEP1 cells were cultured in the following media: MEM, +10% FCS, +1× GlutaMAX, +100 μM NEAA, +10 mM HEPES, +0.5% Pen/Strep. The NCI-H226 cells were cultured in the following media: RPMI 1640, +10% FBS, +1× GlutaMAX, +10 mM HEPES, +0.5% Pen/Strep.

TEAD1 in SK-HEP1 cells = TEAD1 in SK-HEP1 cells (Homo sapiens (Human), UniProt P28347); experiment: TEAD degradation in SK-HEP1 cell line (immunofluorescence); format: cell-based
Method: as §1

[1] = 24 hours, ranges, read-out: DC50 NCI-H226
[2] = 24 hours, ranges, read-out: DC50 SK-HEP1
[3] = 24 h incubation, read-out: DC50 NCI-H226 24 h
[4] = 24 h incubation, read-out: DC50 SK-HEP1 24 h

TEAD1 in SK-HEP1 cells, sequence (P28347 whole entry): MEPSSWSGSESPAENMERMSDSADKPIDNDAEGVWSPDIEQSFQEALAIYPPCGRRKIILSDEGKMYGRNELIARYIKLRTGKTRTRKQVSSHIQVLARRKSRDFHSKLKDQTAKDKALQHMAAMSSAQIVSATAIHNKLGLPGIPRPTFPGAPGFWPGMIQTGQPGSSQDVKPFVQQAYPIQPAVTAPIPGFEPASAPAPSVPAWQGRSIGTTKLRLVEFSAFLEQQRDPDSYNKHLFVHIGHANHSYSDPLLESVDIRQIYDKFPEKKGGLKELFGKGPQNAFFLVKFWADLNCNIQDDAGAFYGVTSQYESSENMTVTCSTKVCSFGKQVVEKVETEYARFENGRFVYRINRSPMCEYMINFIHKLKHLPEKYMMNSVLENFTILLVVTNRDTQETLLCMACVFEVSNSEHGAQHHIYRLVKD
TEAD1 in NCI-H226 cells, sequence (P28347 whole entry, canonical isoform): as the sequence (P28347 whole entry) above

DC50 (TEAD1 in NCI-H226 cells; [1])	DC50 (TEAD1 in SK-HEP1 cells; [2])	DC50 (TEAD1 in NCI-H226 cells; [3])	DC50 (TEAD1 in SK-HEP1 cells; [4])	DC50 (TEAD1 in NCI-H226 cells; 16 h incubation, read-out: DC50 NCI-H226 16 h)	DC50 (TEAD1 in SK-HEP1 cells; 16 h incubation, read-out: DC50 SK-HEP1 16 h)	Compound
100 to 1000 nM	100 to 1000 nM	–	–	–	–	Cc1ccc2c(c1)c1cc(C(=O)NCCOCCOCCOCCOCCNc3cccc4c3C(=O)N(C3CCC(=O)NC3=O)C4=O)ccc1n2-c1ccc(C(F)(F)F)cc1 (centres unmarked) [Compound 46, N-(14-{[2-(2,6-dioxopiperidin-3-yl)-1,3-dioxo-2,3-dihydro-1H-isoindol-4-yl]amino}-3,6,9,12-tetraoxatetradecan-1-yl)-6-methyl-9-[4-(trifluoro-methyl)phenyl]-9H-carbazole-3-carboxamide]
100 to 1000 nM	100 to 1000 nM	–	–	–	–	Cn1nc2c3cc(C(=O)NCCOCCOCCOCCOCCNc4cccc5c4C(=O)N(C4CCC(=O)NC4=O)C5=O)ccc3n([C@H]3CC[C@H](C(F)(F)F)CC3)c2n1 (some centres unmarked) [Compound 95, N-(14-{[2-(2,6-dioxopiperidin-3-yl)-1,3-dioxo-2,3-dihydro-1H-isoindol-4-yl]amino}-3,6,9,12-tetraoxatetradecan-1-yl)-2-methyl-4-[(1r,4r)-4-(trifluoromethyl)cyclohexyl]-2H,4H-[1,2,3]triazolo[4,5-b]indole-7-carboxamide]
100 to 1000 nM	100 to 1000 nM	–	–	–	–	Cc1ncsc1-c1ccc(CNC(=O)[C@@H]2C[C@@H](O)CN2C(=O)[C@@H](NC(=O)CCCCCc2cn(CCCCCCCNC(=O)c3ccc4c(c3)c3cn(C)nc3n4-c3ccc(C(F)(F)F)cc3)nn2)C(C)(C)C)cc1 [Compound 34, (2S,4R)-1-[(2S)-3,3-dimethyl-2-(6-{1-[7-({2-methyl-8-[4-(trifluoromethyl)phenyl]-2H,8H-pyrazolo[3,4-b]indol-5-yl}formamido)heptyl]-1H-1,2,3-triazol-4-yl}hexanamido)butanoyl]-4-hydroxy-N-{[4-(4-methyl-1,3-thiazol-5-yl)phenyl]methyl}pyrrolidine-2-carboxamide]
100 to 1000 nM	100 to 1000 nM	–	–	–	–	Cc1ncsc1-c1ccc(CNC(=O)[C@@H]2C[C@@H](O)CN2C(=O)[C@@H](NC(=O)COCCOCCOCCNC(=O)c2ccc3c(c2)c2cn(C)nc2n3-c2ccc(C(F)(F)F)cc2)C(C)(C)C)cc1 [Compound 52]
100 to 1000 nM	100 to 1000 nM	600 nM	650 nM	–	–	Cn1cc2c3cc(C(=O)NCCOCCOCCOCCOCCNC(=O)[C@]45CCC(C)(C)C[C@H]4[C@H]4C(=O)C=C6[C@@]7(C)C=C(C#N)C(=O)C(C)(C)[C@@H]7CC[C@@]6(C)[C@]4(C)CC5)ccc3n(-c3ccc(C(F)(F)F)cc3)c2n1 [Compound 33, (4aS,6aR,6bS,8aR,12aS, 14aR, 14bS)-11-cyano-2,2,6a,6b,9,9,12a-heptamethyl-N-[14-({2-methyl-8-[4-(trifluoromethyl)phenyl]-2H,8H-pyrazolo[3,4-b]indol-5-yl}formamido)-3,6,9,12-tetraoxatetradecan-1-yl]-10,14-dioxo-1,2,3,4,4a,5,6,6a,6b,7,8,8a,9,10,12a,14,14a,14b-octadecahydropicene-4a-carboxamide]
100 to 1000 nM	100 to 1000 nM	1000 nM	700 nM	1000 nM	700 nM	Cc1ncsc1-c1ccc([C@H](C)NC(=O)[C@@H]2C[C@@H](O)CN2C(=O)[C@@H](NC(=O)CCCCCC(=O)NCCOCCOCCNC(=O)c2ccc3c(c2)c2cn(C)nc2n3-c2ccc(C(F)(F)F)cc2)C(C)(C)C)cc1 [Compound 24, N′-[(2S)-1-[(2S,4R)-4-hydroxy-2-{[(1S)-1-[4-(4-methyl-1,3-thiazol-5-yl)phenyl]ethyl]carbamoyl}pyrrolidin-1-yl]-3,3-dimethyl-1-oxobutan-2-yl]-N-(2-{2-[2-({2-methyl-8-[4-(trifluoromethyl)phenyl]-2H,8H-pyrazolo[3,4-b]indol-5-yl}formamido)ethoxy]ethoxy}ethyl) heptanediamide]
< 100 nM	< 100 nM	–	–	–	–	Cn1cc2c3cc(C(=O)NCCOCCOCCOCCOCCOCCOCCNc4cccc5c4C(=O)N(C4CCC(=O)NC4=O)C5=O)ccc3n(-c3ccc(C(F)(F)F)cc3)c2n1 (centres unmarked) [Compound 87, N-(20-{[2-(2,6-dioxopiperidin-3-yl)-1,3-dioxo-2,3-dihydro-1H-isoindol-4-yl]amino}-3,6,9,12,15,18-hexaoxaicosan-1-yl)-2-methyl-8-[4-(trifluoromethyl)phenyl]-2H,8H-pyrazolo[3,4-b]indole-5-carboxamide]
< 100 nM	< 100 nM	–	–	–	–	Cn1cc2c3cc(C(=O)NCCOCCOCCOCCOCCOCCNc4cccc5c4C(=O)N(C4CCC(=O)NC4=O)C5=O)ccc3n(-c3ccc(C(F)(F)F)cc3)c2n1 (centres unmarked) [Compound 47, N-(17-{[2-(2,6-dioxopiperidin-3-yl)-1,3-dioxo-2,3-dihydro-1H-isoindol-4-yl]amino}-3,6,9,12,15-pentaoxaheptadecan-1-yl)-2-methyl-8-[4-(trifluoro-methyl)phenyl]-2H,8H-pyrazolo[3,4-b]indole-5-carboxamide]
100 to 1000 nM	100 to 1000 nM	–	–	–	–	Cc1ncsc1-c1ccc([C@H](C)NC(=O)[C@@H]2C[C@@H](O)CN2C(=O)[C@@H](NC(=O)CCCCCc2cnnn2CCCCCCCNC(=O)c2ccc3c(c2)c2cn(C)nc2n3-c2ccc(C(F)(F)F)cc2)C(C)(C)C)cc1 [Compound 38, (2S,4R)-1-[(2S)-3,3-dimethyl-2-(6-{1-[7-({2-methyl-8-[4-(trifluoromethyl)-phenyl]-2H,8H-pyrazolo[3,4-b]indol-5-yl}formamido)heptyl]-1H-1,2,3-triazol-5-yl}hexanamido)butanoyl]-4-hydroxy-N-[(1S)-1-[4-(4-methyl-1,3-thiazol-5-yl)phenyl]ethyl]pyrrolidine-2-carboxamide]
< 100 nM	< 100 nM	90 nM	70 nM	–	–	Cn1cc2c3cc(C(=O)NCCOCCOCCOCCOCCNc4cccc5c4C(=O)N(C4CCC(=O)NC4=O)C5=O)ccc3n(-c3ccc(C(F)(F)F)cc3)c2n1 (centres unmarked) [Compound 28, N-(14-{[2-(2,6-dioxopiperidin-3-yl)-1,3-dioxo-2,3-dihydro-1H-isoindol-4-yl]amino}-3,6,9,12-tetraoxatetradecan-1-yl)-2-methyl-8-[4-(trifluoromethyl)phenyl]-2H,8H-pyrazolo[3,4-b]indole-5-carboxamide]
1000 to 3000 nM	100 to 1000 nM	–	–	–	–	Cc1ncsc1-c1ccc(CNC(=O)[C@@H]2C[C@@H](O)CN2C(=O)[C@@H](NC(=O)COCCCOCCOCCNC(=O)c2ccc3c(c2)c2cn(C)nc2n3-c2ccc(C(F)(F)F)cc2)C(C)(C)C)cc1 [Compound 74, (2S,4R)-1-[(2S)-3,3-dimethyl-2-[2-(3-{2-[2-({2-methyl-8-[4-(trifluoro-methyl)phenyl]-2H,8H-pyrazolo[3,4-b]indol-5-yl}formamido)ethoxy]-ethoxy}propoxy)acetamido]butanoyl]-4-hydroxy-N-{[4-(4-methyl-1,3-thiazol-5-yl)phenyl]methyl}pyrrolidine-2-carboxamide]
3000 to 9000 nM	100 to 1000 nM	–	–	–	–	Cc1ncsc1-c1ccc(CNC(=O)C2CC(O)CN2C(=O)C(NC(=O)COCCOCCOCCOCCNC(=O)c2ccc3c(c2)c2cn(C)nc2n3-c2ccc(C(F)(F)F)cc2)C(C)(C)C)cc1 (stereo in doubt) [Compound 12, (2S,4R)-1-{(2S)-3,3-dimethyl-2-[14-({2-methyl-8-[4-(trifluoromethyl)phenyl]-2H,8H-pyrazolo[3,4-b]indol-5-yl}formamido)-3,6,9,12-tetraoxatetradecanamido]butanoyl}-4-hydroxy-N-{[4-(4-methyl-1,3-thiazol-5-yl)phenyl]methyl}pyrrolidine-2-carboxamide]
